≈ marks a conversion by molar mass, not a printed value.
Target: α-amylase
Test: DNS colorimetric α-amylase assay, starch substrate, absorbance at […] nm
Type: biochemical

SMILES: CCCN(CCC)S(=O)(=O)c1ccc(-c2nnc(SCN3C(=O)c4ccccc4C3=O)o2)cc1 [PESMP, 4-(5-((1,3-Dioxoisoindolin-2-yl)methylthio)-1,3,4-oxadiazol-2-yl)-N,N-dipropylbenzene-sulfonamide]
- IC50 Value: 10.60 ± 0.16 µg/mL (≈ 21.2 µM)
